US20210101881A1 (Ancureall Pharmaceutical (Shanghai) Co., Ltd., priority 2018, published 2021)

tested on: MOLM13 cells; assay: Growth inhibition of CDK9-positive cell line MOLM13 in vitro (CCK8/MTT assay); format: cell-based, human; conditions: Homo sapiens, MOLM-13, read-out: IC50 of the compound for inhibiting cell growth, MOLM13 cells

Row | SMILES | IC50 [nM]
1 | NC(=O)c1cn(-c2ccnc(Nc3ccc(N4CCNCC4)cc3)n2)c2ccccc12 [Compound 27, 1-[2-(4-piperazin-1-yl-phenylamino)-pyrimidin-4-yl]-1H-indole-3-carboxamide] | 1 to 10

same assay, conditions: Homo sapiens, MOLM-13; MOLM13 cells, cultured 3 to 6 days, CCK8; read-out: IC50 of the compound for inhibiting cell growth, MOLM13 cells

Row | IC50 [nM] | SMILES
2 | 1 to 10 | COc1cc(Nc2ncc(C)c(-n3cc(C(N)=O)c4ccccc43)n2)ccc1N(C)CCN1CCCC1 [Compound 100, 1-(2-{3-methoxy-4-[methyl-(2-pyrrolidin-1-yl-ethyl)-amino]-phenylamino}-5-methyl-pyrimidin-4-yl)-1H-indole-3-carboxamide]
3 | 10 to 100 | CN(C)CCN(C)c1ccc(Nc2nccc(-n3cc(C(N)=O)c4ccccc43)n2)cc1Cl [Compound 82, 1-(2-{3-chloro-4-[(2-dimethylamino-ethyl)-methyl-amino]-phenylamino}-pyrimidin-4-yl)-1H-indole-3-carboxamide]
4 | < 1 | COc1cc(Nc2ncc(F)c(-n3cc(C(N)=O)c4ccccc43)n2)ccc1N1CCNCC1 [Compound 40, 1-[5-fluoro-2-(3-methoxy-4-piperazin-1-yl-phenylamino)-pyrimidin-4-yl]-1H-indole-3-carboxamide]
5 | > 1000 | NC(=O)c1cn(-c2ccnc(Nc3cccc(F)c3Cl)n2)c2ccccc12 [Compound 3, 1-[2-(2-chloro-3-fluoro-phenylamino)-pyrimidin-4-yl]-1H-indole-3-carboxamide]
6 | 10 to 100 | CNC(=O)N1CCN(c2cccc(Nc3ncc(F)c(-n4cc(C(N)=O)c5ccccc54)n3)c2)CC1 [Compound 172, 1-{5-fluoro-2-[3-(4-methylcarbamoyl-piperazin-1-yl)-phenylamino]-pyrimidin-4-yl}-1H-indole-3-carboxamide]
7 | 10 to 100 | NC(=O)c1cn(-c2ccnc(Nc3ccc(N4CCC(N5CCCCC5)CC4)cc3)n2)c2ccccc12 [Compound 24, 1-[2-(4-[1,4′]bipiperidin-1′-yl-phenylamino)-pyrimidin-4-yl]-1H-indole-3-carboxamide]
8 | > 1000 | NC(=O)c1cn(-c2ccnc(Nc3ccc(N4CCNCC4)cn3)n2)c2ccccc12 [Compound 133, 1-[2-(5-piperazin-1-yl-pyridin-2-ylamino)-pyrimidin-4-yl]-1H-indole-3-carboxamide]
9 | 10 to 100 | NC(=O)c1cn(-c2nc(Nc3cccc(N4CCNCC4)c3)ncc2F)c2ccccc12 [Compound 146]
10 | 10 to 100 | NC(=O)c1cn(-c2ccnc(Nc3ccc(OCCN4CCNCC4)cc3)n2)c2ccccc12 [Compound 22, 1-(2-{4-[2-(4-piperazin-1-yl)-ethoxy]-phenylamino]-pyrimidin-4-yl}-1H-indole-3-carboxamide]
11 | 10 to 100 | CN(C)CCCN(C)c1ccc(Nc2nccc(-n3cc(C(N)=O)c4ccccc43)n2)cc1Cl [Compound 83, 1-(2-{3-chloro-4-[(3-dimethylamino-propyl)-methyl-amino]-phenylamino}-pyrimidin-4-yl)-1H-indole-3-carboxamide]
12 | 100 to 1000 | Cc1cnn(-c2cccc(Nc3ncc(F)c(-n4cc(C(N)=O)c5ccccc54)n3)c2)c1 [Compound 154, 1-{5-fluoro-2-[3-(4-methyl-pyrazol-1-yl)-phenylamino]-pyrimidin-4-yl}-1H-indole-3-carboxamide]
13 | 10 to 100 | CN1CCN(c2cc(Nc3ncc(Cl)c(-n4cc(C(N)=O)c5ccccc54)n3)ccc2F)CC1 [Compound 119, 1-{5-chloro-2-[4-fluoro-3-(4-methyl-piperazin-1-yl)-phenylamino]-pyrimidin-4-yl}-1H-indole-3-carboxamide]
14 | 1 to 10 | CN1CCCN(c2ccc(Nc3nccc(-n4cc(C(N)=O)c5ccccc54)n3)cc2)CC1 [Compound 69, 1-{2-[4-(4-methyl-[1,4]homopiperazin-1-yl)-phenylamino]-pyrimidin-4-yl}-1H-indole-3-carboxamide]
15 | 100 to 1000 | NC(=O)c1cn(-c2nc(Nc3cccc(-n4cccn4)c3)ncc2F)c2ccccc12 [Compound 153, 1-[5-fluoro-2-(3-pyrazol-1-yl-phenylamino)-pyrimidin-4-yl]-1H-indole-3-carboxamide]
16 | 100 to 1000 | Cc1cc(-n2cc(C(N)=O)c3ccccc32)nc(Nc2ccc(N3CCNCC3)cc2)n1 [Compound 38, 1-[6-methyl-2-(4-piperazin-1-yl-phenylamino)-pyrimidin-4-yl]-1H-indole-3-carboxamide]
17 | 1 to 10 | CCN1CCN(c2cccc(Nc3ncc(F)c(-n4cc(C(N)=O)c5cc(N)ccc54)n3)c2)CC1 [Compound 162, 5-amino-1-{2-[3-(4-ethyl-piperazin-1-yl)-phenylamino]-5-fluoro-pyrimidin-4-yl}-1H-indole-3-carboxamide]
18 | 10 to 100 | Cc1ccc(Nc2ncc(Cl)c(-n3cc(C(N)=O)c4ccccc43)n2)cc1N1CCN(C)CC1 [Compound 121, 1-{5-chloro-2-[4-methyl-3-(4-methyl-piperazin-1-yl)-phenylamino]-pyrimidin-4-yl}-1H-indole-3-carboxamide]

Row | IC50 [nM] | SMILES
19 | 10 to 100 | COc1cc(F)c([N+](=O)[O-])cc1Nc1nccc(-n2cc(C(N)=O)c3ccccc32)n1 [Compound 7, 1-[2-(4-fluoro-2-methoxy-5-nitro-phenylamino)-pyrimidin-4-yl]-1H-indole-3-carboxamide]
20 | 10 to 100 | CN(CCN1CCOCC1)c1ccc(Nc2nccc(-n3cc(C(N)=O)c4ccccc43)n2)cc1 [Compound 72, 1-(2-{4-[methyl-(2-morpholin-4-ethyl)-amino]-phenylamino}-pyrimidin-4-yl)-1H-indole-3-carboxamide]
21 | 1 to 10 | COc1ccc2c(c1)c(C(N)=O)cn2-c1nc(Nc2cccc(N3CCN(C4CCOC4)CC3)c2)ncc1F (stereo not shown) [Compound 151, 1-(5-fluoro-2-{3-[4-(tetrahydro-furan-3-yl)-piperazin-1-yl]-phenylamino}-pyrimidin-4-yl)-5-methoxy-1H-indole-3-carboxamide]
22 | 1 to 10 | COc1cc(Nc2nccc(-n3cc(C(N)=O)c4ccccc43)n2)ccc1N(C)CCN(C)C [Compound 80, 1-(2-{4-[(2-dimethylamino-ethyl)-methyl-amino]-3-methoxy-phenylamino}-pyrimidin-4-yl)-1H-indole-3-carboxamide]
23 | > 1000 | COc1ccnc(Nc2nccc(-n3cc(C(N)=O)c4ccccc43)n2)c1 [Compound 131, 1-[2-(4-methoxy-pyridin-2-ylamino)-pyrimidin-4-yl]-1H-indole-3-carboxamide]
24 | 1 to 10 | COc1cc(Nc2ncc(F)c(-n3cc(C(N)=O)c4ccccc43)n2)ccc1N(C)CCN1CCCC1 [Compound 98, 1-(5-fluoro-2-{3-methoxy-4-[methyl-(2-pyrrolidin-1-yl-ethyl)-amino]-phenylamino}-pyrimidin-4-yl)-1H-indole-3-carboxamide]
25 | 1 to 10 | NC(=O)c1cn(-c2nc(Nc3cccc(N4CCOCC4)c3)ncc2F)c2ccccc12 [Compound 137, 1-[5-fluoro-2-(3-morpholin-4-yl-phenylamino)-pyrimidin-4-yl]-1H-indole-3-carboxamide]
26 | 10 to 100 | CN(C)CCOc1ccc(Nc2nccc(-n3cc(C(N)=O)c4ccccc43)n2)cc1 [Compound 19, 1-{2-[4-(2-dimethylamino-ethoxy)-phenylamino]-pyrimidin-4-yl}-1H-indole-3-carboxamide]
27 | 1 to 10 | CN1CCN(c2ccc(Nc3nccc(-n4cc(C(N)=O)c5ccccc54)n3)cc2C#N)CC1 [Compound 49, 1-{2-[3-cyano-4-(4-methyl-piperazin-1-yl)-phenylamino]-pyrimidin-4-yl}-1H-indole-3-carboxamide]
28 | 10 to 100 | CN(C)CCCN(C)c1ccc(Nc2nccc(-n3cc(C(N)=O)c4ccccc43)n2)cc1 [Compound 76, 1-(2-{4-[(3-dimethylamino-propyl)-methyl-amino]-phenylamino}-pyrimidin-4-yl)-1H-indole-3-carboxamide]
29 | 1 to 10 | CN1CCN(c2ccc(Nc3ncc(Cl)c(-n4cc(C(N)=O)c5ccccc54)n3)cc2)CC1 [Compound 53, 1-{5-chloro-2-[4-(4-methyl-piperazin-1-yl)-phenylamino]-pyrimidin-4-yl}-1H-indole-3-carboxamide]
30 | 1 to 10 | CN1CCN(c2ccc(Nc3ncc(F)c(-n4cc(C(N)=O)c5ccccc54)n3)cc2F)CC1 [Compound 54, 1-{5-fluoro-2-[3-fluoro-4-(4-methyl-piperazin-1-yl)-phenylamino]-pyrimidin-4-yl}-1H-indole-3-carboxamide]
31 | 1 to 10 | CN(C)CCN1CCN(c2ccc(Nc3nccc(-n4cc(C(N)=O)c5ccccc54)n3)cc2F)CC1 [Compound 63, 1-(2-{4-[4-(2-dimethylamino-ethyl)-piperazin-1-yl]-3-fluoro-phenylamino}-pyrimidin-4-yl)-1H-indole-3-carboxamide]
32 | 10 to 100 | CCC(=O)N1CCN(c2cccc(Nc3nccc(-n4cc(C(N)=O)c5ccccc54)n3)c2)CC1 [Compound 128, 1-{2-[3-(4-propionyl-piperazin-1-yl)-phenylamino]-pyrimidin-4-yl}-1H-indole-3-carboxamide]
33 | > 1000 | CNC(=O)c1cn(-c2ccnc(Nc3ccc(N4CCNCC4)cc3Cl)n2)c2ccccc12 [Compound 102, 1-[2-(2-chloro-4-piperazin-1-yl-phenylamino)-pyrimidin-4-yl]-1H-indole-3-carboxmethylamide]
34 | 10 to 100 | CC(=O)N1CCN(Cc2ccc(Nc3nccc(-n4cc(C(N)=O)c5ccccc54)n3)cc2)CC1 [Compound 15, 1-{2-[4-(4-acetyl-piperazin-1-methyl)-phenylamino]-pyrimidin-4-yl}-1H-indole-3-carboxamide]
35 | 1 to 10 | CN1CCN(c2cc(F)cc(Nc3nccc(-n4cc(C(N)=O)c5ccccc54)n3)c2)CC1 [Compound 114, 1-{2-[3-fluoro-5-(4-methyl-piperazin-1-yl)-phenylamino]-pyrimidin-4-yl}-1H-indole-3-carboxamide]

Row | SMILES | IC50 [nM]
36 | CNC(=O)c1cn(-c2ccnc(Nc3ccc(N4CCNCC4)cc3)n2)c2ccccc12 [Compound 101, 1-[2-(4-piperazin-1-yl-phenylamino)-pyrimidin-4-yl]-1H-indole-3-carboxmethylamide] | 100 to 1000
37 | NC(=O)c1cn(-c2nc(Nc3ccc(N4CCNCC4)cc3)ncc2Cl)c2ccccc12 [Compound 34, 1-[5-chloro-2-(4-piperazin-1-yl-phenylamino)-pyrimidin-4-yl]-1H-indole-3-carboxamide] | < 1
